ChEMBL document CHEMBL5724562, “Toxicity screen in isolated B cell assay results for EUbOPEN Chemogenomics Library” (2024)

tested on: B cell; experiment: Cytotoxicity screening of chemical probes in isolated B cell assay. Data is normalized to DMSO control, the cell viability average of replicates are reported. Reduction of ATP level more than 20% indicate compromised cell health status.; conditions: human, 0.1 µM

SMILES	Cell Viability [%]
CCCCN(CCCC)C(=O)CN1C[C@H](c2cc(OC)c3c(c2)OCO3)[C@@H](C(=O)O)[C@@H]1CC(C)(C)CCC.Cc1ccc(S(=O)(=O)O)cc1	100.019

same assay, conditions: human, 1 µM

SMILES	Cell Viability [%]
CCOc1nc2cccc(C(=O)O)c2n1Cc1ccc(-c2ccccc2-c2nnn[nH]2)cc1	101.389
CCCCC(=O)N(Cc1ccc(-c2ccccc2-c2nnn[nH]2)cc1)[C@H](C(=O)O)C(C)C	103.145
CC1(C)[C@H]2C[C@H](C/C=C\CCCC(=O)O)[C@@H](NC(=O)c3csc4ccc(O)cc34)[C@@H]1C2	100.906
Cl.Cl.Cl.c1ccc(N2CCN(Cc3nc4ccccc4[nH]3)CC2)nc1	98.1024
O=C(Nc1cccnn1)N1CCC(=Cc2cccc(Oc3ccc(C(F)(F)F)cn3)c2)CC1	98.4854
COCCn1c(C)c(C)s/c1=N\C(=O)C1C(C)(C)C1(C)C	97.5131
CC#C[C@@H](CC(=O)O)c1ccc(OCc2cccc(-c3ccc(C(F)(F)F)cc3)c2)cc1	93.0276
Cc1cc(OCCCS(C)(=O)=O)cc(C)c1-c1cccc(COc2ccc3c(c2)OC[C@H]3CC(=O)O)c1	101.968
COc1cc(Nc2nccc(-c3cnn4nc(OC)ccc34)n2)cc(C(F)(F)F)c1	93.0077
COc1ccncc1C(=O)NC(=O)Nc1ccc(-c2ccccc2)c(C(F)(F)F)c1	100.618
Cc1sc2c(c1C)C(c1ccc(Cl)cc1)=N[C@@H](CC(=O)OC(C)(C)C)c1nnc(C)n1-2	83.2653
O=C(O)c1n[nH]c2c1C[C@H]1C[C@@H]21	98.0706
COc1ccccc1S(=O)(=O)Nc1ccc2c(c1)CN(C)C(=O)N2	94.2739
CCCc1cc(C)[nH]c(=O)c1CNC(=O)c1cc(-c2ccnc(N3CCN(C)CC3)c2)cc2c1cnn2C(C)C	92.8371
CCc1nc2c(C)cc(C)nc2[nH]1	100.659
O=C(c1ccc(C(=O)N2CCC(N3CCCC3)CC2)c(Nc2ccccc2)c1)N1CCC(N2CCCC2)CC1	93.0388
COc1cc2c(NC3CCN(C(C)C)CC3)nc(N3CCC(F)(F)CC3)nc2cc1OCCCN1CCCC1	98.4898
CSc1cc2c(cc1C(F)(F)F)N(C(=O)Nc1cccnc1)CC2	99.9626
CC[C@H]1OC(=O)[C@H](C)[C@@H](O[C@H]2C[C@@](C)(OC)[C@@H](O)[C@H](C)O2)[C@H](C)[C@@H](O[C@@H]2O[C@H](C)C[C@H](N(C)C)[C@H]2O)[C@@]2(C)CC(C)=C(O2)[C@H](C)[C@@H](O)[C@]1(C)O	98.1033
CC(C)N(CCCNC(=O)Nc1ccc(C(C)(C)C)cc1)C[C@H]1O[C@@H](n2cc(Br)c3c(N)ncnc32)[C@H](O)[C@@H]1O	95.9292
COc1cc2c(cc1OCCCN1CCCC1)N=C(N)C21CCC1	98.8274

SMILES	Cell Viability [%]
CCOC(=O)Nc1cc(-c2ccc(C)c(NS(C)(=O)=O)c2)nn2c(C)nnc12	84.5677
CCOC(=O)CCNc1cc(N2CCc3ccccc3CC2)nc(-c2ccccn2)n1	95.6308
O=C(O)CNC(=O)c1c(O)c2ccccc2n(Cc2ccccc2)c1=O	96.2966
Cc1cc(Cn2cnc3c2C[C@@H](C(=O)O)N(C(=O)C(c2ccccc2)c2ccccc2)C3)ccc1N(C)C	100.94
COc1ccc(C(=O)N2CCN(C(=O)/C=C/c3ccc(Br)cc3)CC2)cc1	97.705
Cc1nc[nH]c1CCN.Cl	99.4273
COc1ccccc1C(=O)Nc1cc2c(cc1N1CCCC1)n(C)c(=O)n2C	98.47
CCCc1cc(C)[nH]c(=O)c1CNC(=O)c1cc(-c2ccc(N3CCN(C(C)C)CC3)nc2)cc2c1cnn2C(C)C	96.021
CC(C)NC(=O)N1CC[C@H](NC2=Nc3cc(F)ccc3N(CC(F)F)c3ccc(Cl)cc32)C1	98.1837
COc1cc(-c2cn([C@H]3CCc4c(F)cccc4N(CC(F)(F)F)C3=O)nn2)ccc1-n1cnc(C)c1	98.1038
COc1ccc(CCc2nc3cc(-c4c(C)noc4C)ccc3n2C[C@H](C)N2CCOCC2)cc1Cl	94.0053
CCCOc1ccn2c(C(C)=O)cc(-c3ccccc3S(C)(=O)=O)c2c1	98.3118
COc1cc(C#N)ccc1S(=O)(=O)Nc1ccc2c(c1)cc(C)c(=O)n2C	99.4263
O=C(/C=C/N1C[C@H]2C[C@@H]1CN2c1ccccn1)c1ccccc1O	91.7355
Cc1cc(=O)n(C)c2cc(N3C(=O)CC[C@H](NS(=O)(=O)CC(C)C)[C@H]3c3ccc(Cl)cc3)ccc12	97.6321
COc1cc2c(cc1NS(=O)(=O)c1ccc(Br)cc1C)n(C)c(=O)n2C	96.0295
Clc1cccc(-c2nnnn2Cc2cccnc2)c1Cl	97.1983
CCCS(=O)(=O)c1nc(NC2CC2)cc(-c2ccc3c(ccn3C3CC(C)(C)NC(C)(C)C3)c2)n1	24.107
CN1CCN(c2ccc(-c3cccc(CN4CCOCC4)c3)cc2NC(=O)c2c[nH]c(=O)cc2C(F)(F)F)CC1	99.6552
Cc1nc(N2CC[C@H](O)C2)ncc1-c1cc(C(F)(F)F)cc2[nH]ncc12	99.9461
Cc1ccc(Cn2nc(C(=O)N[C@@H]3C(C)(C)[C@@H]4CC[C@@]3(C)C4)cc2-c2ccc(Cl)c(C)c2)cc1	95.8945

SMILES	Cell Viability [%]
CCN(C(=O)CO)[C@H]1CN(/C(=N\C#N)Nc2cccc(OC(F)F)c2)N=C1c1ccc(Cl)c(Cl)c1	100.495
COc1cc(-c2cn(C)c(=O)c3cnccc23)c(OC)cc1CN(C)C	95.7323
CCC(=O)N1CCOc2c(cc(-c3ccc(OC)c(OC)c3)cc2OCC2CCCN(C)C2)C1 (stereo not given)	98.9735
COc1cc(C(=O)N(CCCc2ccccc2)Cc2ccc(CC(=O)O)cc2)cc(OC)c1C	101.167
CC(=O)c1cc(-c2cc(C(=O)NC3CC3)ccc2C)c2ncccn12	95.0596
CN1C[C@H](Nc2cnn(C)c(=O)c2Br)C[C@H](c2ccccc2)C1	94.5817
O=C(NCC(=O)N1CCCC1)Nc1ccc2cnccc2c1	100.263
O=C1CCc2cc(Nc3cc(OC4CCOCC4)c([N+](=O)[O-])cc3Cl)ccc2N1	94.8245
Cc1cc2c(cc1N1C(=O)c3cccc4c(CCCO)ccc(c34)C1=O)n(C)c(=O)n2C	92.6096
Nc1ncnc2c1ccn2[C@@H]1O[C@H]([C@H](O)c2ccccc2)[C@@H](O)[C@H]1O	101.429
Cl.Cl.c1ccc([C@@H]2C[C@H]2NC2CCNCC2)cc1	93.3816
Cn1cc(CCn2cnc(-c3cnn(C)c3)c2-c2ccc(C#N)cc2)cn1	99.8514
COc1cc(Nc2ccnc3ccc(Br)cc23)cc(OC)c1OC	95.869
CCN(CC)S(=O)(=O)Nc1cccc(-c2ccc3c(NC(=O)C4CC4)n[nH]c3c2)c1	95.3727
CN(C)CCCOc1ccc(-c2cc(NCCCn3cccn3)nc(S(C)(=O)=O)n2)cc1	98.5143
Clc1cc2c(NC3CCCC3)nnc(-c3ccncc3)c2cc1Cl	99.0979
O=C(NC[C@H](O)CN1CCc2ccccc2C1)c1ccnc(NC2CCC2)c1	91.5741
Cc1cn(-c2cc(NC(=O)c3ccc4c(c3)CN(c3cncnc3)C[C@@H]4C)cc(C(F)(F)F)c2)cn1	96.9111
CN(C)C(=O)/C(C#N)=C/c1ccc(-c2nc3cnc4[nH]ccc4c3n2C2CCCCC2)o1	89.3026
Cc1nnc2c3ccccc3c(N[C@@H](C)[C@H](c3ccccc3)N(C)C)nn12	95.5642
Cl.Cl.NC1(c2ccc(-c3nc4ccn5c(=O)[nH]nc5c4cc3-c3ccccc3)cc2)CCC1	85.9288

SMILES	Cell Viability [%]
O=C(NCc1ccc(F)cc1)N1CCN2C(=O)OC(c3ccccc3)(c3ccccc3)C2C1 (stereo not given)	104.95
Cl.O=C(O)c1cc(-c2ccc(C3CCNCC3)cc2)c2ccc(-c3ccc(C(F)(F)F)cc3)cc2c1	98.0873
Cc1cccc(-c2cnc3occ(-c4ccc(C(=O)O)c(C5CCCC5)c4)c3c2)c1	94.5514
C[C@H]1CC(=O)Nc2cc(C(=O)NCCC3CC3)ccc2N1C(=O)N1CC2CC2C1 (stereo not given in full)	100.735
CN(C)C(=O)c1ccc(-c2cc(C(=O)N[C@@H]3CCc4ccccc43)no2)cc1O	97.9607
C[C@@H](c1cccc(CN)c1)n1cc(Cl)cc(C(N)=O)c1=N.Cl	100.561
Cn1cc(-c2ccc3occ(-c4cccc(-c5ccncc5)c4)c3n2)cn1	101.775
Cl.O=c1c2cccn2c2ccccc2n1CCCN1CCC(c2ccc(Cl)cc2)CC1	96.0052
O=C(NCCCN1CCOC1=O)c1cnc(NCc2cc(Br)ccc2Br)nc1NC1CCCC1	100.266
Cc1c(Nc2ccc(S(=O)(=O)N3CCN(C)CC3)cc2F)nc2ccc(-c3cnn(C4CC4)c3)cn2c1=O	96.0793
Cl.O=C([C@@H](Cc1cccc(C(F)(F)F)c1)NS(=O)(=O)c1cc(F)c2c(c1)CCNC2)N1CCCC1	98.8503
CCCCN(Cc1ccccc1)C(=O)c1ccc(S(=O)(=O)Nc2ccccc2)cc1	99.9127
COc1cc(OC)cc(-c2noc(N3CCN(C)C4(CCN(c5ccnc(C)c5)CC4)C3)n2)c1	97.1072
CCCCN(CCCC)C(=O)CN1C[C@@H](c2cc(OC)c3c(c2)OCO3)[C@H](C(=O)O)[C@H]1CC(C)(C)CCC.Cl	89.8179
c1ccc2oc(-c3csc(C4CCN(Cc5nc6ncccc6[nH]5)CC4)n3)cc2c1	83.0928
C[C@H]1CCCN1Cc1nc2cc(NC(=O)c3ccc4cnccc4c3)ccc2[nH]1	90.4338
Cc1cc(C)cc([C@@H]2c3cc(C)ccc3NC(=O)CN2C(=O)c2ccc(Br)s2)c1	95.4438
COc1cc(C(=O)N2CC[C@@H](O)[C@@H](N)C2)cc2nc(-c3cc4ccccc4n3CC3CC3)n(C)c12.Cl	96.5784
CCC(=O)Nc1cc(Nc2cc(NC3CC3)n3ncc(C#N)c3n2)ccc1C	88.1167
CCNC(=O)c1cc2c(N3CCOCC3C)ccnc2[nH]1 (stereo not given)	99.1799
COc1ccccc1C(=O)Nc1cc2c(cc1N1CCNCC1C)n(C)c(=O)n2C (stereo not given)	98.4804
